Measured values: paper PMC12040169 (PLOS Biology, 2025)

Assay: in vitro
Settings: human, hela cells, % viability

`O=C(c1[nH]nc2c1CCCC2)N1CCn2cc(C(F)(F)F)nc2C1` [CBK283915] gave a viability at 28.5 h, 10 µM of 96.7%.

`CCn1cc(C(=O)N2CCn3cc(C(F)(F)F)nc3C2)c(C)n1` [CBK283916] gave a viability at 28.5 h, 10 µM of 93.8%.

Compound `O=C(NCCCn1ccnc1)c1ncoc1-c1ccccc1F` [CBK283917] has a viability at 28.5 h, 10 µM of 96%.

Work on `Cc1ccc(C2=CCN(CC(=O)N3CCc4ccccc43)CC2)o1` [CBK283918] yielded a viability at 28.5 h, 10 µM of 88.1%.

Compound `CC1CCCCN1C(=O)CN1C(=O)N2CCN=C2c2ccccc21` (stereo not shown) [CBK283921] has a viability at 28.5 h, 10 µM of 102%.

Work on `C#CCNC(=O)C1CCN(c2nc3ccccc3n2CC)CC1` [CBK283923] yielded a viability at 28.5 h, 10 µM of 89.4%.

`C=CCn1c(N2CCC(C(=O)NC3CC3)CC2)nc2ccccc21` [CBK283924] gave a viability at 28.5 h, 10 µM of 86.4%.

With `C#CCNC(=O)C1CCN(c2nc3ccccc3n2CC=C)CC1` [CBK283925] the viability at 28.5 h, 10 µM was 95.4%.

`O=C(N1CCn2cnnc2C1)C1(c2ccccc2)CCCC1` [CBK283926] showed a viability at 28.5 h, 10 µM of 90.8%.

With `Cc1cc(C)c2c(c1)cc(C)c1nn(CC(=O)N(C)C)c(=O)n12` [CBK283927] the viability at 28.5 h, 10 µM was 96.9%.

In the case of `O=C(NC1CCCc2c1cnn2-c1ccc(F)cc1)c1ccncc1` (stereo not shown) [CBK283929], the viability at 28.5 h, 10 µM was 91.6%.

Compound `CCc1cccc2c(CN3CCc4nc(C)[nH]c(=O)c4C3)c[nH]c12` [CBK283931] has a viability at 28.5 h, 10 µM of 94.6%.

`O=C(C1CC1)N1CCCC1c1nc(-c2ccc(F)cc2)n[nH]1` (stereo not shown) [CBK283934] showed a viability at 28.5 h, 10 µM of 102%.

In the case of `O=C(CN1CCCCC1)N1CCCC1c1nc2ccccc2[nH]1` (stereo not shown) [CBK283935], the viability at 28.5 h, 10 µM was 104%.

Compound `O=C(c1ccccc1F)N1CCC(n2cnc3cccnc32)CC1` [CBK283937] has a viability at 28.5 h, 10 µM of 87.5%.

In the case of `O=C(c1cccs1)N1CCC(n2cnc3cccnc32)CC1` [CBK283938], the viability at 28.5 h, 10 µM was 88.4%.

In the case of `O=C(c1ccco1)N1CCC(n2cnc3cccnc32)CC1` [CBK283939], the viability at 28.5 h, 10 µM was 91.6%.

`Cn1c(N2CCC(C(=O)NC3CC3)CC2)nc2ccccc21` [CBK283940] showed a viability at 28.5 h, 10 µM of 97.9%.

`CCn1c(=O)n(CC(=O)N2CCCCCC2)c2cccnc21` [CBK283942] showed a viability at 28.5 h, 10 µM of 97.1%.

Work on `CCn1c(=O)n(CC(=O)N(C(C)C)C(C)C)c2cccnc21` [CBK283943] yielded a viability at 28.5 h, 10 µM of 100%.

Compound `CCN(CC)C(=O)CN1C(=O)N2CCN=C2c2ccccc21` [CBK283944] has a viability at 28.5 h, 10 µM of 94.9%.

With `Cc1nc2c(c(=O)[nH]1)CN(CC1CCCCC1)CC2` [CBK283947] the viability at 28.5 h, 10 µM was 86.7%.

With `Cc1nc2c(c(=O)[nH]1)CN(Cc1ccccc1F)CC2` [CBK283948] the viability at 28.5 h, 10 µM was 89.3%.

Compound `Cc1nc2c(c(=O)[nH]1)CN(Cc1cccc(Oc3ccccc3)c1)CC2` [CBK283951] has a viability at 28.5 h, 10 µM of 104%.

In the case of `Cc1nc2c(c(=O)[nH]1)CN(Cc1ccc(-c3ccccc3)cc1)CC2` [CBK283952], the viability at 28.5 h, 10 µM was 99%.

In the case of `Cc1c(C(=O)N2CCC(C(=O)c3cccnc3)CC2)oc2ccccc12` [CBK283954], the viability at 28.5 h, 10 µM was 88.9%.

For `C#CCNC(=O)C1CCN(c2nc3ccccc3n2C)CC1` [CBK283956], the viability at 28.5 h, 10 µM was 89.7%.

With `Cn1c(N2CCC(C(=O)NCC3CC3)CC2)nc2ccccc21` [CBK283957] the viability at 28.5 h, 10 µM was 91.6%.

For `O=C(CN1C(=O)N2CCN=C2c2ccccc21)NC1CC1` [CBK283958], the viability at 28.5 h, 10 µM was 93.1%.

With `O=C(CN1C(=O)N2CCN=C2c2ccccc21)NC1CCCC1` [CBK283959] the viability at 28.5 h, 10 µM was 100%.

In the case of `O=C1NC2(CCN(C(=O)C3CCCC3)CC2)Nc2ccccc21` [CBK283962], the viability at 28.5 h, 10 µM was 94.9%.

`COCCn1c(=O)n(Cc2ccccc2)c2cccnc21` [CBK283964] gave a viability at 28.5 h, 10 µM of 91%.

With `O=c1n(Cc2ccncc2)nc(C(F)(F)F)c2cccn12` [CBK283966] the viability at 28.5 h, 10 µM was 87%.

`Cc1nc2c(c(=O)[nH]1)CCN(Cc1ccc(Cl)c(Cl)c1)C2` [CBK283969] gave a viability at 28.5 h, 10 µM of 81.6%.

For `CC1CCCCC1NC(=O)c1ncoc1-c1cccs1` (stereo not shown) [CBK283973], the viability at 28.5 h, 10 µM was 84.8%.

`CN(C)C(=O)CN1CC[C@@H](c2ccccc2)[C@H](O)C1` [CBK283979] showed a viability at 28.5 h, 10 µM of 83%.

Work on `Cc1cc2c(o1)CCc1sc(N(C)C(=O)C3CC(=O)N(C)C3)nc1-2` (stereo not shown) [CBK283980] yielded a viability at 28.5 h, 10 µM of 75.6%.
